Reference: patent publication US20080182851A1, “ACETYLENE DERIVATIVES AS STEAROYL COA DESATURASE INHIBITORS” (Glenmark Pharmaceuticals S.A., priority 2006, published 2008)

Molecular target: T1, human SCD1 enzyme (Homo sapiens, UniProt O00767)
T1 sequence (O00767 1-359): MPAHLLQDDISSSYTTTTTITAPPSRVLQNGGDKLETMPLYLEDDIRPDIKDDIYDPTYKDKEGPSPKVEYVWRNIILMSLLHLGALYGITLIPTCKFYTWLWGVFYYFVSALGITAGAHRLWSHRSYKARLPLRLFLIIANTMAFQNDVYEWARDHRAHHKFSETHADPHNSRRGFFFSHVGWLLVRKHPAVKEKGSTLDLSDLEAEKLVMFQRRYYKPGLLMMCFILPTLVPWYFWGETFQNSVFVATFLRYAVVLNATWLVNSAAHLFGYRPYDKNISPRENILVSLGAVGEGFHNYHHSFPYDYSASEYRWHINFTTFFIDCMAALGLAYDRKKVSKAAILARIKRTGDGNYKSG
Assay: Tritiated water release assay (conversion of radiolabeled stearoyl-CoA to oleoyl-CoA)
Type: biochemical
Conditions: 10 μM concentration of test compounds; microsomal SCD1, 3H stearoyl CoA, 37° C. 30 minutes; percent of control reaction; read-out: % Inhibition
Procedure: The in-vitro activity of the compounds of the present invention against stearoyl coenzyme desaturase was determined by following conversion of radiolabeled-stearoyl-CoA to oleoyl-CoA using human SCD1 enzyme using a previously published assay procedure with some modifications (Barbara R Talamo and Konrad Bloch, Analytical Biochemistry, 1969, 29, 300-304). This assay protocol is only illustrative and is not meant to limit to the scope of the present invention.
In this assay the microsomal SCD1 enzyme desaturates its substrate, Stearoyl CoA (purchased from American Radiochemicals Ltd.) which is tritiated at C9 and C10 positions. Test compounds were dissolved in dimethylsulfoxide and tested at 10 μM final concentration. Before substrate addition, the test compound or standard reference compound (conjugated linoleic acid at 100 μM final concentration) were pre-incubated in reaction buffer with the enzyme for 10 minutes at 30° C. with shaking. Reaction buffer was prepared as described in literature (Obukowicz et al. JPET, 1998, 287, 157-166) except that the MgCl2, ATP (purchased from Sigma) and CoA (purchased from Sigma) concentrations were changed to 4.9 mM, 7.2 mM and 0.54 mM respectively. The desaturation reaction was initiated by addition of 0.5 μCi of ^3H stearoyl CoA and incubated at 37° C. for 30 minutes with shaking. A control reaction was set without any test compound/reference inhibitor to capture maximum enzymatic activity in the assay. Inhibition of enzyme activity was calculated as a percent of this control reaction giving maximum catalysis and the results are given in Table 5.
Table 5: Tritiated water release assay at 10 μM substrate concentration *Conjugated Linoleic acid was used as a reference standard

SMILES | inhibition at 10 µM
O=C(c1ccccc1C(F)(F)F)N1CCN(c2ccc(C#Cc3cccc(CO)c3)cn2)CC1 [Example 33, 4-{5-[2-(3-Hydroxymethylphenyl)-1-ethynyl]-2-pyridyl}piperazino-2-trifluoromethyl-phenylmethanone] | 20%
CCOC(=O)c1cc(C#Cc2ccc(N3CCN(C(=O)c4ccccc4C(F)(F)F)CC3)nc2)ccc1OC(C)=O [Example 34] | 29%
O=C(O)c1cc(C#Cc2ccc(N3CCN(C(=O)c4ccccc4C(F)(F)F)CC3)nc2)ccc1O [Example 35, 2-Hydroxy-5-(2-{6-[4-(2-trifluoromethylbenzoyl)piperazino]-3-pyridyl}-1-ethynyl)-benzoic acid] | 36%
CC(=O)Nc1cccc(C#Cc2ccc(N3CCN(C(=O)c4ccccc4C(F)(F)F)CC3)nc2)c1 [Example 36, N1-[3-(2-{6-[4-(2-Trifluoromethylbenzoyl)piperazino]-3-pyridyl}-1-ethynyl)phenyl]acetamide] | 23%
O=C(c1ccccc1C(F)(F)F)N1CCN(c2ccc(C#Cc3ccc(O)cc3)nn2)CC1 [Example 37] | 89%
O=C(c1ccccc1C(F)(F)F)N1CCN(c2ccc(C#Cc3cccc(O)c3)nn2)CC1 [Example 38, 4-{6-[2-(3-Hydroxyphenyl)-1-ethynyl]-3-pyridazinyl}piperazino-2-trifluoromethyl-phenylmethanone] | 99%
O=C(c1ccccc1C(F)(F)F)N1CCN(c2ccc(C#Cc3ccc(F)cc3)nn2)CC1 [Example 39] | 75%
O=C(c1ccccc1C(F)(F)F)N1CCN(c2ccc(C#Cc3ccc(F)c(F)c3)nn2)CC1 [Example 40, 4-{6-[2-(3,4-Difluorophenyl)-1-ethynyl]-3-pyridazinyl}piperazino-2(trifluoromethyl)-phenylmethanone] | 81%
O=C(c1ccccc1C(F)(F)F)N1CCN(c2ccc(C#Cc3ccc(C(F)(F)F)cc3)nn2)CC1 [Example 41, 2-Trifluoromethylphenyl-4-{6-[2-(4-trifluoromethylphenyl)-1-ethynyl]-3-pyridazinyl}-piperazinomethanone] | 93%
O=C(c1ccccc1C(F)(F)F)N1CCN(c2ncc(C#Cc3ccc(O)cc3)cn2)CC1 [Example 42, 4-{5-[2-(4-Hydroxyphenyl)-1-ethynyl]-2-pyrimidinyl}piperazino-2-trifluoromethyl-phenylmethanone] | 92%
O=C(c1ccccc1C(F)(F)F)N1CCN(c2ncc(C#Cc3cccc(O)c3)cn2)CC1 [Example 43] | 98%
CCOC(=O)c1ccc(C#Cc2ccc(N3CCN(C(=O)c4ccccc4C(F)(F)F)CC3)nc2)nc1 [Example 44] | 37%
O=C(c1ccccc1C(F)(F)F)N1CCN(c2ccc(C#Cc3cnccn3)cn2)CC1 [Example 45] | 43%
O=C(c1cc(Cl)ccc1Cl)N1CCN(c2ccc(C#Cc3cnccn3)cn2)CC1 [Example 46] | 29%
CCCCn1ccnc1C#Cc1ccc(N2CCN(C(=O)c3ccccc3C(F)(F)F)CC2)nc1 [Example 47, 4-{5-[2-(1-Butyl-1H-2-imidazolyl)-1-ethynyl]-2-pyridyl}piperazino-2-trifluoromethyl-phenylmethanone] | 33%
CC(C)CCn1ccnc1C#Cc1ccc(N2CCN(C(=O)c3ccccc3C(F)(F)F)CC2)nc1 [Example 48] | 22%
O=C(c1ccccc1C(F)(F)F)N1CCN(c2ccc(C#Cc3ccc4[nH]ccc4c3)cn2)CC1 [Example 49, 4-{5-[2-(1H-5-Indolyl)-1-ethynyl]-2-pyridyl}piperazino-2-trifluoromethylphenyl-methanone] | 91%
O=C(c1ccccc1C(F)(F)F)N1CCN(c2ncc(C#Cc3ccc4[nH]ccc4c3)cn2)CC1 [Example 50, 4-{5-[2-(1H-5-Indolyl)-1-ethynyl]-2-pyrimidinyl}piperazino-2-trifluoromethylphenyl-methanone] | 66%

SMILES | inhibition at 10 µM
O=C(c1ccccc1C(F)(F)F)N1CCN(c2ncc(C#Cc3ccc(N4CCCS4(=O)=O)cc3)cn2)CC1 [Example 51] | 22%
O=C(c1ccccc1C(F)(F)F)N1CCN(c2ncc(C#Cc3ccc(-n4cccc4)cc3)cn2)CC1 [Example 52] | 39%
CC(=O)Oc1ccc(C#Cc2cnc(N3CCN(C(=O)c4ccccc4C(F)(F)F)CC3)s2)cc1 [Example 53, 4-(2-{2-[4-(2-Trifluoromethylbenzoyl)piperazino]-1,3-thiazol-5-yl}-1-ethynyl)phenyl acetate] | 47%
N#Cc1cccc(C#Cc2ccc(N3CCN(C(=O)C4CCCC4)CC3)nn2)c1 [Example 54, 3-({6-[4-(Cyclopentylcarbonyl)piperazin-1-yl]pyridazin-3-yl}ethynyl)benzonitrile] | 47%
Oc1cccc(C#Cc2ccc(N3CCN(CC4CC4)CC3)nn2)c1 [Example 55, 3-({6-[4-(Cyclopropylmethyl)piperazin-1-yl]pyridazin-3-yl}ethynyl)phenol] | 60%
CC(=O)Oc1cccc(C#Cc2ccc(N3CCN(CC4CCCCC4)CC3)nn2)c1 [Example 56] | 92%
Oc1cccc(C#Cc2ccc(N3CCN(CC4CCCCC4)CC3)nn2)c1 [Example 57, 3-({6-[4-(Cyclohexylmethyl)piperazin-1-yl]pyridazin-3-yl}ethynyl)phenol] | 96%
Fc1ccccc1CN1CCN(c2ccc(C#CC3CCCCO3)nn2)CC1 (stereo not drawn) [Example 58] | 6%
Oc1cccc(C#Cc2ccc(N3CCN(Cc4ccccc4F)CC3)nn2)c1 [Example 60, 3-({6-[4-(2-Fluorobenzyl)piperazin-1-yl]pyridazin-3-yl}ethynyl)phenol] | 95%
CC(=O)Oc1ccc(C#Cc2ccc(N3CCC(O)(Cc4ccccc4)CC3)nn2)cc1 [Example 61, 4-{[6-(4-Benzyl-4-hydroxypiperidin-1-yl)pyridazin-3-yl]ethynyl}phenyl acetate] | 97%
Oc1ccc(C#Cc2ccc(N3CCC(O)(Cc4ccccc4)CC3)nn2)cc1 [Example 62, 4-Benzyl-1-{6-[(4-hydroxyphenyl)ethynyl]pyridazin-3-yl}piperidin-4-ol] | 99%
Oc1ccc(C#Cc2ccc(N3CCC(O)(Cc4ccccc4F)CC3)nn2)cc1 [Example 63, 4-(2-Fluorobenzyl)-1-{6-[(4-hydroxyphenyl)ethynyl]pyridazin-3-yl}piperidin-4-ol] | 94%
CC(=O)Oc1ccc(C#Cc2ccc(N3CCC(O)(Cc4cc(Cl)ccc4Cl)CC3)nn2)cc1 [Example 64] | 87%
Oc1ccc(C#Cc2ccc(N3CCC(O)(Cc4cc(Cl)ccc4Cl)CC3)nn2)cc1 [Example 65, 1-{6-[(4-Hydroxyphenyl)ethynyl]pyridazin-3-yl}-4-(2,5-dichlorobenzyl)piperidin-4-ol] | 93%
CC(=O)Oc1ccc(C#Cc2ccc(N3CC(Oc4ccccc4F)C3)nn2)cc1 [Example 66] | 94%
Oc1ccc(C#Cc2ccc(N3CC(Oc4ccccc4F)C3)nn2)cc1 [Example 67] | 96%
Fc1ccccc1OC1CCN(c2ccc(C#Cc3ccc4c(c3)OCO4)cn2)CC1 [Example 72] | 38%
Fc1ccccc1OC1CCN(c2ccc(C#Cc3cccnc3)cn2)CC1 [Example 73, 4-(2-Fluorophenoxy)-1-{5-[2-(3-pyridyl)-1-ethynyl]-2-pyridyl}piperidine] | 37%
